According to patent publication US7625948B2, “Ester compound and medicinal use thereof” (Japan Tobacco Inc., priority 2002, dated 2009):
Read-outs that look alike come from different tables or passages of the source.

Key:
Syrian hamsters [1] = assay: Test Example 4: liver TG release inhibition test (Triton WR 1339); format: in vivo; conditions: Triton WR 1339, plasma TG release velocity over 2 h, fasted Syrian hamsters
Procedure: Liver TG Release Inhibition Test
Syrian hamsters (9 to 11 weeks of age) which were fasted for one day were used in the test. Blood was collected previously from orbital venous plexus, and a sample was forced to be administered orally to the hamsters at a dose of 30, 100 or 300 mg/2 mL/kg, and the same amount of vehicle was administered to the control group. Triton WR 1339 (2 mL/kg) was intravenously administered to the hamsters 30 minutes after the above administration. Two hours later, blood was collected from orbital venous plexus, and plasma was separated from the blood. The amount of TG in the plasma was determined by automatic analyzer (Hitachi Co.). The data was expressed in terms of TG release velocity (mg/dL/min)=(value at 2nd hour minus value before administration)/120. Inhibition rate (%) was calculated from the data obtained on the basis of the following equation.
Inhibition rate (%)=100×(1 minus TG release velocity of sample/TG release velocity of control group).

HepG2 cells = assay: Test Example 2: inhibition of apolipoprotein B secretion from HepG2 cells, ELISA (also used for metabolites in Test Example 8); format: cell-based; conditions: Homo sapiens, 24 hours, apo B in supernatant by ELISA, read-out: Test Example 2 Inhibition of apo B secretion IC50
How it was run: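 HepG2 cells cultured 24 h, then exposed 24 h to compounds or metabolites in medium with 0.5% DMSO. Secreted apo B in supernatant quantified by sandwich ELISA (HRP, ABTS, 405 nm) against purified human apo B standard; % inhibition vs DMSO group, IC50 derived.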

Syrian hamsters [2] = assay: Test Example 3: olive oil-loading test (inhibition of fat absorption, plasma TG); format: in vivo; conditions: Mesocricetus auratus, po; 100 mg/kg p.o.; plasma TG 4 hours after olive oil; read-out: Test Example 3 Inhibition of fat absorption after olive oil-loading in Hamster Inhibition rate (%)
[3] = Test Example 6: determination of the concentration in plasma (unchanged form and metabolite, orbital venous plexus and portal vein, LC/MS); format: in vivo; conditions: hamster, oral, Syrian hamsters; for concentration at 1 h: 1 h after 30 mg/kg p.o.; for concentration at 2 h: 2 h after 30 mg/kg p.o.; for concentration at 4 h: 4 h after 30 mg/kg p.o.
Procedure: Determination of the Concentration in Plasma Syrian hamsters (9-15 weeks of age) under non-fasted conditions were used in the test. A sample was suspended in 0.5% methyl cellulose (vehicle), and the suspension was forced to be administered orally to the hamsters at a dose of 30 or 100 mg/2 mL/kg. After a fixed period of time, blood was partly collected from orbital venous plexus, and the hamsters were subjected to laparotomy under ether anesthesia, and then blood was collected from portal vein. The blood was immediately cooled with ice to separate plasma. A portion of the plasma was extracted with an organic solvent and the supernatant was recovered. Concentration of the sample (unchanged form) and that of the metabolite in the supernatant were determined quantitatively by high performance liquid chromatography/mass spectrometry (LC/MS) comparing with chromatogram of synthetic standard.

Syrian hamsters [4] = assay: Test Example 3: olive oil-loading test (inhibition of fat absorption, plasma TG); format: in vivo; conditions: Mesocricetus auratus, po, plasma TG 4 hours after olive oil, read-out: Test Example 3 Inhibition of fat absorption after olive oil-loading in Hamster Inhibition rate (%); for inhibition in vivo at 3 mg/kg: 3 mg/kg p.o.; for inhibition in vivo at 10 mg/kg: 10 mg/kg p.o.
Procedure: Syrian hamsters (9-11 weeks of age) under non-fasted conditions were used in the test. Blood was collected previously from orbital venous plexus, and a sample was suspended in 0.5% methyl cellulose (vehicle) and the suspension was forced to be administered orally to the hamsters at a dose of 0.3, 1, 3 or 10 mg/2 mL/kg. Only vehicle in the same volume was administered to the control group. Olive oil (2 mL/kg) was forced to be administered orally 30 minutes after the administration of the sample, and blood was collected from orbital venous plexus 4 hours later. Plasma was recovered from the blood, and the amount of triglyceride (TG) in the plasma was determined by automatic analyzer (Hitachi Co.). The data was expressed in terms of ΔTG(mg/dL)=the value at 4th hr minus the value before administration. Inhibition rate (%) was calculated from the data obtained on the basis of the following equation.
Inhibition rate (%)=100×(1 minus ΔTG of sample group/ΔTG of control group).

[5] = plasma from peripheral blood (orbital venous plexus), read-out: Concentration in plasma, unaltered form, peripheral blood
[6] = plasma from portal vein blood, read-out: Concentration in plasma, unaltered form, blood of portal vein

SMILES: CCNC(=O)C(COC(=O)Cc1ccc(NC(=O)c2ccccc2-c2ccc(C(F)(F)F)cc2)cc1)(C(=O)NCC)c1ccccc1 [Example 1, 4-[(4′-Trifluoromethylbiphenyl-2-carbonyl)amino]phenyl-acetic acid 2,2-bisethylcarbamoyl-2-phenylethyl ester]
- Inhibition of liver TG release in Hamster, Inhibition rate(%) (Syrian hamsters [1]; 300 mg/kg p.o.): 19(300) %
- IC50 (HepG2 cells): 5.8 nM
- inhibition in vivo at 100 mg/kg (Syrian hamsters [2]): 57%

SMILES: CCOC(=O)C(COC(=O)Cc1ccc(OC(=O)c2ccccc2-c2ccc(C(F)(F)F)cc2)cc1)(C(=O)OCC)c1ccccc1 [Example 1-2, 2-Phenyl-2-{2-[4-(4′-trifluoromethylbiphenyl-2-carbonyloxy)phenyl]acetoxymethyl}malonic acid diethyl ester]
- concentration at 1 h [3, 5]: < 200 nM
- concentration at 2 h [3, 5]: < 200 nM
- concentration at 4 h [3, 5]: < 200 nM
- concentration at 1 h [3, 6]: < 200 nM
- concentration at 2 h [3, 6]: < 200 nM
- concentration at 4 h [3, 6]: < 200 nM
- IC50 (HepG2 cells): 850 nM

SMILES: CCNC(=O)C(COC(=O)Cc1ccc(NC(=O)c2ccccc2-c2ccc(C(F)(F)F)cc2)c(CC)c1)(C(=O)NCC)c1ccccc1 [Example 1-5, {3-Ethyl-4-[(4′-trifluoromethylbiphenyl-2-carbonyl)amino]phenyl}acetic acid 2,2-bisethylcarbamoyl-2-phenylethyl ester]
- inhibition in vivo at 3 mg/kg (Syrian hamsters [4]): 59%
- IC50 (HepG2 cells): 0.65 nM

SMILES: O=C(Cc1ccc(NC(=O)c2ccccc2-c2ccc(C(F)(F)F)cc2)cc1)OCC1(C(=O)NCC(F)(F)F)c2ccccc2-c2ccccc21 [Example 1-6]
- inhibition in vivo at 10 mg/kg (Syrian hamsters [4]): 54%
- Inhibition of liver TG release in Hamster, Inhibition rate(%) (Syrian hamsters [1]; 100 mg/kg p.o.): 0(100) %
- IC50 (HepG2 cells): 5.5 nM

SMILES: O=C(Cc1ccc(NC(=O)c2ccccc2-c2ccc(C(F)(F)F)cc2)cc1)OCC(C(=O)NCC(F)(F)F)(C(=O)NCC(F)(F)F)c1ccccc1 [Example 1-12]
- concentration at 1 h [3, 5]: < 200 nM
- concentration at 2 h [3, 5]: < 200 nM
- concentration at 4 h [3, 5]: < 200 nM
- concentration at 1 h [3, 6]: < 200 nM
- concentration at 2 h [3, 6]: < 200 nM
- concentration at 4 h [3, 6]: < 200 nM
- IC50 (HepG2 cells): 63 nM

SMILES: COC(=O)C(COC(=O)Cc1ccc(NC(=O)c2ccccc2-c2ccc(C(F)(F)F)cc2)cc1)(C(=O)OC)c1ccccc1 [Example 1-13]
- concentration at 1 h [3, 5]: < 200 nM
- concentration at 2 h [3, 5]: < 200 nM
- concentration at 4 h [3, 5]: < 200 nM
- concentration at 1 h [3, 6]: < 200 nM
- concentration at 2 h [3, 6]: < 200 nM
- concentration at 4 h [3, 6]: < 200 nM
- IC50 (HepG2 cells): 170 nM

SMILES: CCCNC(=O)C(COC(=O)Cc1ccc(NC(=O)c2ccccc2-c2ccc(C(F)(F)F)cc2)cc1)(C(=O)NCCC)c1ccccc1 [Example 1-35]
- Inhibition of liver TG release in Hamster, Inhibition rate(%) (Syrian hamsters [1]; 300 mg/kg p.o.): 9(300) %
- IC50 (HepG2 cells): 6.9 nM
- inhibition in vivo at 100 mg/kg (Syrian hamsters [2]): 59%

SMILES: CCNC(=O)C(COC(=O)Cc1ccc(NC(=O)c2ccccc2-c2ccc(C(F)(F)F)cc2)c(C(=O)N(C)C)c1)(C(=O)NCC)c1ccccc1 [Example 2, {3-Dimethylcarbamoyl-4-[(4′-trifluoromethylbiphenyl-2-carbonyl)amino]phenyl}acetic acid 2,2-bisethylcarbamoyl-2-phenylethyl ester]
- inhibition in vivo at 10 mg/kg (Syrian hamsters [4]): 95%
- IC50 (HepG2 cells): 1.5 nM

SMILES: CCCNC(=O)C(COC(=O)Cc1ccc(NC(=O)c2ccccc2-c2ccc(C(F)(F)F)cc2)c(C(=O)N(C)C)c1)(C(=O)NCCC)c1ccccc1 [Example 2-2]
- inhibition in vivo at 10 mg/kg (Syrian hamsters [4]): 96%
- IC50 (HepG2 cells): 1.3 nM

SMILES: CCNC(=O)C(COC(=O)Cc1ccc(NC(=O)c2ccccc2-c2ccc(C(F)(F)F)cc2)c(C(=O)NC)c1)(C(=O)NCC)c1ccccc1 [Example 2-3]
- inhibition in vivo at 3 mg/kg (Syrian hamsters [4]): 68%
- IC50 (HepG2 cells): 2 nM

SMILES: CCNC(=O)C(CCOC(=O)Cc1ccc(NC(=O)c2ccccc2-c2ccc(C(F)(F)F)cc2)c(C(=O)N(C)C)c1)(C(=O)NCC)c1ccccc1 [Example 2-4]
- inhibition in vivo at 3 mg/kg (Syrian hamsters [4]): 78%
- IC50 (HepG2 cells): 0.29 nM

SMILES: CCOC(=O)C(COC(=O)Cc1ccc(NC(=O)c2ccccc2-c2ccc(C(F)(F)F)cc2)c(C(=O)N(C)C)c1)(C(=O)OCC)c1ccccc1 [Example 2-5]
- inhibition in vivo at 3 mg/kg (Syrian hamsters [4]): 70%
- Inhibition of liver TG release in Hamster, Inhibition rate(%) (Syrian hamsters [1]; 100 mg/kg p.o.): 0(100) %
- concentration at 1 h [3, 5]: < 20 nM
- concentration at 2 h [3, 5]: < 20 nM
- concentration at 4 h [3, 5]: < 20 nM
- concentration at 1 h [3, 6]: 10 nM
- concentration at 2 h [3, 6]: 30 nM
- concentration at 4 h [3, 6]: 10 nM
- IC50 (HepG2 cells): 0.55 nM

SMILES: CCNC(=O)C(CCCOC(=O)Cc1ccc(NC(=O)c2ccccc2-c2ccc(C(F)(F)F)cc2)c(C(=O)N(C)C)c1)(C(=O)NCC)c1ccccc1 [Example 2-7]
- inhibition in vivo at 3 mg/kg (Syrian hamsters [4]): 58%
- IC50 (HepG2 cells): 0.56 nM

SMILES: CCOC(=O)C(COC(=O)Cc1ccc(NC(=O)c2ccccc2-c2ccc(C(F)(F)F)cc2)c(C(=O)N2CCCC2)c1)(C(=O)OCC)c1ccccc1 [Example 2-22]
- inhibition in vivo at 3 mg/kg (Syrian hamsters [4]): 61%
- Inhibition of liver TG release in Hamster, Inhibition rate(%) (Syrian hamsters [1]; 30 mg/kg p.o.): 0(30) %
- IC50 (HepG2 cells): 0.44 nM

SMILES: COC(=O)C(COC(=O)Cc1ccc(NC(=O)c2ccccc2-c2ccc(C(F)(F)F)cc2)c(C(=O)N(C)C)c1)(C(=O)OC)c1ccccc1 [Example 2-39]
- inhibition in vivo at 3 mg/kg (Syrian hamsters [4]): 68%
- Inhibition of liver TG release in Hamster, Inhibition rate(%) (Syrian hamsters [1]; 100 mg/kg p.o.): 6(100) %
- IC50 (HepG2 cells): 0.76 nM

SMILES: CCNC(=O)C(COC(=O)Cc1ccc(NC(=O)c2ccccc2-c2ccc(C(F)(F)F)cc2)c(OC)c1)(C(=O)NCC)c1ccccc1 [Example 3-3]
- inhibition in vivo at 10 mg/kg (Syrian hamsters [4]): 78%
- Inhibition of liver TG release in Hamster, Inhibition rate(%) (Syrian hamsters [1]; 100 mg/kg p.o.): 18(100) %
- IC50 (HepG2 cells): 1 nM

SMILES: CCNC(=O)C(CCOC(=O)Cc1ccc(NC(=O)c2ccccc2-c2ccc(C(F)(F)F)cc2)c(OC)c1)(C(=O)NCC)c1ccccc1 [Example 3-6]
- inhibition in vivo at 3 mg/kg (Syrian hamsters [4]): 52%
- IC50 (HepG2 cells): 0.63 nM

SMILES: CCNC(=O)C(CCOC(=O)Cc1ccc(NC(=O)c2ccccc2-c2ccc(C(F)(F)F)cc2)c(OCC)c1)(C(=O)NCC)c1ccccc1 [Example 3-8]
- inhibition in vivo at 3 mg/kg (Syrian hamsters [4]): 60%
- IC50 (HepG2 cells): 0.38 nM

SMILES: CCNC(=O)C(COC(=O)Cc1ccc(NC(=O)c2ccccc2-c2ccc(C(F)(F)F)cc2)c(OC(C)C)c1)(C(=O)NCC)c1ccccc1 [Example 3-10]
- inhibition in vivo at 3 mg/kg (Syrian hamsters [4]): 85%
- IC50 (HepG2 cells): 0.31 nM
